Assay results reported in ChEMBL document CHEMBL2069197 (ACS Med Chem Lett, 2012).
In brackets after ≈: the same amount, converted by molar mass.

Assays:
[1] = Neuroprotective activity in cortical neurons assessed as reduction in glutamate-induced cell death at 5 uM incubated for 24 hrs prior to glutamate-challenge measured after 24 hrs by MTT assay; assay type: functional, Cortical neurone; parameters: scale not given: the % may be the effect or the level left
[2] = Stability in cortical neurons assessed as drug metabolism at 5 uM; assay type: ADME; details: cortical neurone
[3] = Aqueous solubility of the compound in phosphate buffered saline after 90 mins by laser nephelometry at pH 7.4; assay type: physicochemical
[4] = Aqueous solubility of the compound in phosphate buffered saline after 90 mins by laser nephelometry at pH 4; assay type: physicochemical
[5] = Half life in aqueous media at pH 7; assay type: physicochemical; details: for half-life: aqueous media; for t1/2: buffer
Rattus norvegicus [6] = test: Drug metabolism in Sprague-Dawley rat plasma assessed as progesterone formation at 4 mg/kg, iv; assay type: ADME, organism-based; parameters: dose 4 mg/kg, route intravenous; details: in vivo
Rattus norvegicus [7] = test: Neuroprotective activity in rat assessed as reduction in bilateral cortical contusion-induced cerebral edema at 4 mg/kg, iv administered as single dose 1 hr post-injury measured after 24 hrs relative to untreated; assay type: functional; parameters: scale not given: the % may be the effect or the level left
in vivo = details: Sprague-Dawley, rat, plasma, iv, 4 mg/kg
Description: Half life in Sprague-Dawley rat plasma at 4 mg/kg, iv

[8] = Drug metabolism in rat liver S9 fraction assessed as progesterone formation; assay type: ADME, subcellular
Liver = test: Metabolic stability in rat liver S9 fraction assessed as compound remaining; assay type: ADME, subcellular
Rattus norvegicus [9] = test: Metabolic stability in Sprague-Dawley rat assessed as compound remaining at 10 mg/kg, iv administered as single dose by LC-MS/MS analysis; assay type: ADME, organism-based; parameters: dose 10 mg/kg, route intravenous; details: in vivo
Rattus norvegicus [10] = test: Drug metabolism in Sprague-Dawley rat assessed as free oxime formation at 10 mg/kg, iv administered as single dose by LC-MS/MS analysis; assay type: ADME, organism-based; parameters: dose 10 mg/kg, route intravenous; details: in vivo
Rattus norvegicus [11] = test: Drug metabolism in Sprague-Dawley rat assessed as progesterone formation at 10 mg/kg, iv administered as single dose by LC-MS/MS analysis; assay type: ADME, organism-based; parameters: dose 10 mg/kg, route intravenous; details: in vivo
Rattus norvegicus [12] = test: Neuroprotective activity in rat assessed as reduction in bilateral cortical contusion-induced cerebral edema at 8 mg/kg, ip administered at 1 hr post-injury followed by 8 mg/kg, sc administered 6 hrs post-injury measured after 24 hrs relative to untreated control; assay type: functional; parameters: scale not given: the % may be the effect or the level left
Rattus norvegicus [13] = test: Drug metabolism in Sprague-Dawley rat assessed as compound remaining at 10 mg/kg, im administered as single dose by LC-MS/MS analysis; assay type: ADME, organism-based; parameters: dose 10 mg/kg, route intramuscular; details: in vivo
Rattus norvegicus [14] = test: Drug metabolism in Sprague-Dawley rat assessed as free oxime formation at 10 mg/kg, im administered as single dose by LC-MS/MS analysis; assay type: ADME, organism-based; parameters: dose 10 mg/kg, route intramuscular; details: in vivo
Rattus norvegicus [15] = test: Drug metabolism in Sprague-Dawley rat assessed as progesterone formation at 10 mg/kg, im administered as single dose by LC-MS/MS analysis; assay type: ADME, organism-based; parameters: dose 10 mg/kg, route intramuscular; details: in vivo
Plasma [16] = test: Drug metabolism rat plasma assessed as free oxime formation at 10 uM by LC-MS/MS analysis; assay type: ADME, cell-free
[17] = Drug metabolism in rat liver S9 fraction assessed as free oxime formation; assay type: ADME, subcellular
Plasma [18] = test: Drug metabolism human plasma assessed as free oxime formation at 10 uM by LC-MS/MS analysis; assay type: ADME, cell-free
[19] = Neuroprotective activity in cortical neurons assessed as reduction in glutamate-induced cell death at 10 uM incubated for 24 hrs prior to glutamate-challenge measured after 24 hrs by MTT assay; assay type: functional, Cortical neurone; parameters: scale not given: the % may be the effect or the level left
[20] = Neuroprotective activity in cortical neurons assessed as reduction in glutamate-induced cell death at 1 uM incubated for 24 hrs prior to glutamate-challenge measured after 24 hrs by MTT assay; assay type: functional, Cortical neurone; parameters: scale not given: the % may be the effect or the level left
[21] = Neuroprotective activity in cortical neurons assessed as reduction in glutamate-induced cell death at 20 uM incubated for 24 hrs prior to glutamate-challenge measured after 24 hrs by MTT assay; assay type: functional, Cortical neurone; parameters: scale not given: the % may be the effect or the level left
[22] = Half life in human plasma; assay type: ADME, cell-free

SMILES | Activity [1] [%] | Stability [2] | solubility kinetic at 1.5 h [3] [µM] | solubility kinetic at 1.5 h [4] [µM] | half-life [5] [h] | other results
CC(=O)[C@H]1CC[C@H]2[C@@H]3CCC4=C/C(=N/O)CC[C@]4(C)[C@H]3CC[C@]12C | 21 | Stable | < 45 | < 45 | > 240 | Drug metabolism (Rattus norvegicus [6]): Not Active; Activity (Rattus norvegicus [7]): 60%; half-life (in vivo): 2.7 h
C/C(=N\O)[C@H]1CC[C@H]2[C@@H]3CCC4=CC(=O)CC[C@]4(C)[C@H]3CC[C@]12C |  | Stable |  |  |  | Drug metabolism [8]: Not Active; Stability (Liver): Stable
CO/N=C(\C)[C@H]1CC[C@H]2[C@@H]3CCC4=CC(=O)CC[C@]4(C)[C@H]3CC[C@]12C |  | Stable | < 25 | < 25 | > 240 | 
C/C(=N\OCCN1CCOCC1)[C@H]1CC[C@H]2[C@@H]3CCC4=CC(=O)CC[C@]4(C)[C@H]3CC[C@]12C | 26 | Stable | 108 (≈ 47.8 µg/mL) | > 450 | > 240 | 
CC(=O)O/N=C(\C)[C@H]1CC[C@H]2[C@@H]3CCC4=CC(=O)CC[C@]4(C)[C@H]3CC[C@]12C |  | Stable | 100 (≈ 37.2 µg/mL) | 180 (≈ 66.9 µg/mL) |  | 
C/C(=N\OC(=O)[C@@H](N)C(C)C)[C@H]1CC[C@H]2[C@@H]3CCC4=CC(=O)CC[C@]4(C)[C@H]3CC[C@]12C.Cl | 24 | Stable | 146 | > 645 | 11.3 | Stability (Rattus norvegicus [9]): Unstable; Drug metabolism (Rattus norvegicus [10]): Active; Drug metabolism (Rattus norvegicus [11]): Active; Activity (Rattus norvegicus [12]): 56%; Stability (Rattus norvegicus [13]): Unstable; Drug metabolism (Rattus norvegicus [14]): Active; Drug metabolism (Rattus norvegicus [15]): Not Active; Drug metabolism (Plasma [16]): Active; Drug metabolism [17]: Active; Drug metabolism [8]: Active; Drug metabolism (Plasma [18]): Active
C/C(=N\OC(=O)[C@@H]1CCCN1)[C@H]1CC[C@H]2[C@@H]3CCC4=CC(=O)CC[C@]4(C)[C@H]3CC[C@]12C | 21 | Stable | 34 (≈ 14.5 µg/mL) | 395 (≈ 169 µg/mL) |  | Activity [19]: 33%
C/C(=N\OC(=O)[C@@H]1CCC[N+]1(C)C)[C@H]1CC[C@H]2[C@@H]3CCC4=CC(=O)CC[C@]4(C)[C@H]3CC[C@]12C.[I-] |  | Stable | 51 | 345 | 0.833 | 
C/C(=N\OC(=O)CN(C)C)[C@H]1CC[C@H]2[C@@H]3CCC4=CC(=O)CC[C@]4(C)[C@H]3CC[C@]12C |  | Stable | 171 (≈ 70.9 µg/mL) | 449 (≈ 186 µg/mL) |  | 
C/C(=N\OC(=O)C[N+](C)(C)C)[C@H]1CC[C@H]2[C@@H]3CCC4=CC(=O)CC[C@]4(C)[C@H]3CC[C@]12C.[I-] |  | Stable | 45 | > 540 | 0.933 | 
C/C(=N\OC(=O)CN1CCOCC1)[C@H]1CC[C@H]2[C@@H]3CCC4=CC(=O)CC[C@]4(C)[C@H]3CC[C@]12C |  | Stable | 215 (≈ 98.2 µg/mL) | 215 (≈ 98.2 µg/mL) |  | 
C/C(=N\OC(=O)CN1CCN(C)CC1)[C@H]1CC[C@H]2[C@@H]3CCC4=CC(=O)CC[C@]4(C)[C@H]3CC[C@]12C |  | Stable | 145 (≈ 68.1 µg/mL) | 153 (≈ 71.9 µg/mL) | 70.6 | 
C/C(=N\OC(=O)c1cccnc1)[C@H]1CC[C@H]2[C@@H]3CCC4=CC(=O)CC[C@]4(C)[C@H]3CC[C@]12C | 20 | Stable | < 35 | < 35 |  | t1/2 [5]: ND(Insoluble)
C/C(=N\OC(=O)c1ccc[n+](C)c1)[C@H]1CC[C@H]2[C@@H]3CCC4=CC(=O)CC[C@]4(C)[C@H]3CC[C@]12C.[I-] | 0 | Stable | 212 | 349 | 3.1 | Activity [20]: 14%
C/C(=N\OC(=O)c1ccc(CN)cc1)[C@H]1CC[C@H]2[C@@H]3CCC4=CC(=O)CC[C@]4(C)[C@H]3CC[C@]12C.Cl |  | Stable | < 30 | < 30 |  | t1/2 [5]: ND(Insoluble)
C/C(=N\OC(=O)c1ccc(CN2CCN(C)CC2)cc1)[C@H]1CC[C@H]2[C@@H]3CCC4=CC(=O)CC[C@]4(C)[C@H]3CC[C@]12C |  | Stable | < 30 | < 30 |  | t1/2 [5]: ND(Insoluble)
C/C(=N\OC(=O)C1CCNCC1)[C@H]1CC[C@H]2[C@@H]3CCC4=CC(=O)CC[C@]4(C)[C@H]3CC[C@]12C.Cl | 4 | Stable | 247 | 247 | 94.8 | Activity [19]: 24%
C/C(=N\OC(=O)C1CCN(C)CC1)[C@H]1CC[C@H]2[C@@H]3CCC4=CC(=O)CC[C@]4(C)[C@H]3CC[C@]12C |  | Stable | 108 (≈ 49.1 µg/mL) | > 660 |  | 
C/C(=N\OC(=O)C1CC[N+](C)(C)CC1)[C@H]1CC[C@H]2[C@@H]3CCC4=CC(=O)CC[C@]4(C)[C@H]3CC[C@]12C.[I-] | 0 | Stable | > 500 | > 500 | 70.6 | 
C/C(=N\OC(=O)[C@@H]1CCCNC1)[C@H]1CC[C@H]2[C@@H]3CCC4=CC(=O)CC[C@]4(C)[C@H]3CC[C@]12C.Cl |  | Stable | 428 | > 500 | 38.5 | 
C/C(=N\OC(=O)[C@H]1CCCNC1)[C@H]1CC[C@H]2[C@@H]3CCC4=CC(=O)CC[C@]4(C)[C@H]3CC[C@]12C.Cl |  | Stable | 314 | 314 | 40.8 | 
CC(=O)[C@H]1CC[C@H]2[C@@H]3CCC4=C/C(=N/OC(=O)[C@@H](N)C(C)C)CC[C@]4(C)[C@H]3CC[C@]12C.Cl | 27 | Stable | 172 | 322 | 10.1 | Stability (Rattus norvegicus [9]): Unstable; Drug metabolism (Rattus norvegicus [10]): Active; Drug metabolism (Rattus norvegicus [11]): Active; Activity (Rattus norvegicus [12]): 59%; Stability (Rattus norvegicus [13]): Unstable; Drug metabolism (Rattus norvegicus [14]): Active; Drug metabolism (Rattus norvegicus [15]): Not Active; Drug metabolism (Plasma [16]): Active; Drug metabolism (Plasma [18]): Active
CC(=O)[C@H]1CC[C@H]2[C@@H]3CCC4=CC(=O)CC[C@]4(C)[C@H]3CC[C@]12C [PROGESTERONE] | 4 |  | < 25 | < 25 | > 240 | Activity [21]: 42%; Activity (Rattus norvegicus [12]): 62%; half-life [22]: 0.417 h
